According to patent US20230271949A1, “GLP-1R MODULATING COMPOUNDS” (ASCLETIS BIOSCIENCE CO., LTD., priority 2022, published 2023):

Molecular target: GLP-1R (Homo sapiens, UniProt P43220)
Experiment: GLP-1R agonist cAMP stimulation assay (HTRF cAMP)
Type: cell-based
Details: HEK293 cell line expressing GLP-1 target; HTRF cAMP agonist mode, 30 min at RT
Protocol: cAMP Detection Kit, Cisbio (Cat #62AM4PEJ)
The cell line was constructed by WuXi.
2. Methods • a) The compound source plate preparation: • The reference 7-37 was diluted from 500 nM, 4-fold, 10 points in DMSO using Bravo. The compounds were diluted from […], 3-fold, 10 points in DMSO using Bravo. • b) Transfer of compounds: • 1) Use Echo transfer 100 nL cpd to the OptiPlate-384 plate. • 2) Spin the plates at 1000 rpm for 5 sec. • c) Cell suspension preparation: • 1) Thaw 1 vial of GLP-1 cells rapidly in 37° C. water bath. • 2) Transfer cell suspension into 10 ml of HBSS in a 15 ml conical tube. • 3) Centrifuge cells at 1000 rpm for 5 min at room temperature to pellet cells • 4) Gently aspirate supernatant being careful not to aspirate cells. • 5) Flick pellet to loose cells and re-suspend the cell pellet in 10 ml HBSS. Use a sterile pipette to pipette up and down to dislodge clumps. • 6) Count cells for concentration and to determine cell viability on Vi-cell. • 7) Re-suspend the GLP-1 cells in assay buffer at a concentration of 1.0×E5/mL cells. • 8) Transfer 10 μL GLP-1 cells to OptiPlate-384 plate. • d) HTRF cAMP Assay for agonist: • 1) Incubate the plate at RT for 30 min before adding the detection reagent. • 2) Add 10 μL each of detection reagent using Electric Multiple Channel Pipette. • 3) Cover the 384 plate with TopSeal-A film and incubate for 60 minutes at room temperature. • Remove the TopSeal-A, read on EnVision.
Create a new log (Inhibitor) vs response—Variable slope mode in Prism5.0 software, substitute the standard curve concentration (x) and its corresponding 665/615 data (y) into the model, convert the standard curve concentration (abscissa) by x=log(x), and make the standard curve through the converted xy.
Transform the data of 665/615 in the whole plate into a column of data, substitute it into y in the table of standard curve concentration (x) and 665/615 data (y), copy the x (interpolatedx) corresponding to automatic conversion by the software into a table, convert it into cAMP level by the formula x=10^(x), and reset the data into 384 distribution.
% Activity=(cAMP level−LC)/(HC−LC)*100% • Z factor: 1-3*(STD_HC+[…])/(HC-LC) • Assay Window: HC/LC • LC: The average cAMP level of adding DMSO wells • HC: The average cAMP level of adding the top concentration of reference compounds wells.
Create a new […] in Prism5.0 software, substitute the sample concentration (x) and its corresponding % Activity data (y) into the model, convert the standard curve concentration (abscissa) to x=log(x), and make the sample curve through the converted xy.

GLP-1R, sequence (P43220 24-463): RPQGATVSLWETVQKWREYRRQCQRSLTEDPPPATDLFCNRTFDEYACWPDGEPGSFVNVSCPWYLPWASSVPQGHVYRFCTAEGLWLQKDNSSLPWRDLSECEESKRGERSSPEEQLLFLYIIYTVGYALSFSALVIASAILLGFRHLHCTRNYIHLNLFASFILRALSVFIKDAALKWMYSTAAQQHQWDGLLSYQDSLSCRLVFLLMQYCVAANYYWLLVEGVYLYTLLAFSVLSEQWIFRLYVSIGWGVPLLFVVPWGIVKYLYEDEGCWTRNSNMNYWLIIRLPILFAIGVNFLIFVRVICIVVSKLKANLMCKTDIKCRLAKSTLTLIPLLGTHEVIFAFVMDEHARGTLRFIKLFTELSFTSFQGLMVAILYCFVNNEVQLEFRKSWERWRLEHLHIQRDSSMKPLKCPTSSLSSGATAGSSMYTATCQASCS

First: Cc1n[nH]c2c(C)cc(NC(=O)c3ccc4c(c3)nc(CN3CC=C(c5cccc(OCc6ccc(Cl)cn6)n5)CC3)n4C[C@@H]3CCO3)cc12 [Compound 165]
Second: Cc1n[nH]c2c(F)cc(NC(=O)c3cc4c(nc(CN5CC=C(c6cccc(OCc7ccc(Cl)cn7)n6)CC5)n4C[C@@H]4CCO4)s3)cc12 [Compound 406]
The EC50 of the first is 110-fold lower: 0.88 nM for the first, 99.2 nM for the second. The first is the more potent here.

First: CC1(c2ccc(Cl)cc2F)Oc2cccc(C3=CCN(Cc4nc5cc(C(=O)Nc6ccc7[nH]nc(F)c7c6)ccc5n4CC4CCO4)CC3)c2O1 (stereo not drawn) [Compound 292]
Second: Cc1n[nH]c2c(F)cc(NC(=O)c3ccc4c(c3)nc(CN3CC=C(c5cccc6c5O[C@](C)(c5ccc(C#N)cc5F)O6)CC3)n4CC3CCO3)cc12 (stereo partly drawn) [Compound 300]
The EC50 of the first is 46-fold higher: 8.73 nM for the first, 0.19 nM for the second.

First: Cc1n[nH]c2cnc(NC(=O)c3ccc4c(c3)nc(CN3CCC(c5cccc(OCc6ccc(Cl)cc6F)n5)CC3)n4C[C@@H]3CCO3)nc12 [Compound 195]
Second: Cc1cc(NC(=O)c2ccc3c(c2)nc(CN2CCC(c4cccc(OCc5ccc(Cl)cc5F)n4)CC2)n3C[C@@H]2CCO2)c(C)c2c(C)n[nH]c12 [Compound 120]
The EC50 of the first is 6.6-fold lower: 2.31 nM for the first, 15.3 nM for the second.

Going from CC1(c2ccc(Cl)cc2F)Oc2cccc(C3CCN(Cc4nc5cc(C(=O)Nc6ccc7[nH]nc(C(F)(F)F)c7c6)ccc5n4CC4CCO4)CC3)c2O1 (stereo not drawn) [Compound 333] to Cc1cc(NC(=O)c2ccc3c(c2)nc(CN2CCC(c4cccc(OCc5cc(F)c(C#N)s5)n4)CC2)n3C[C@@H]2CCO2)cc2c(C(F)(F)F)n[nH]c12 [Compound 377], the EC50 rises from 2.19 nM to 3.41 nM (1.6-fold).

Cc1n[nH]c2ccc(C(=O)Nc3ccc4nc(CN5CC=C(c6cccc(OCc7ccc(C#N)cc7F)n6)CC5)n(CC5CCO5)c4c3)cc12 (stereo not drawn) [Compound 290] and Cc1n[nH]c2c(F)cc(C(=O)Nc3ccc4nc(CN5CC=C(c6cccc(OCc7ccc(C#N)cc7F)n6)CC5)n(CC5CCO5)c4c3)cc12 (stereo not drawn) [Compound 289] are within 1.5-fold of each other in EC50: 1.2 nM for the first, 0.99 nM for the second.

CC(C)c1n[nH]c2ccc(NC(=O)c3ccc4c(c3)nc(CN3CC=C(c5cccc(OCc6ccc(Cl)cc6F)n5)CC3)n4C[C@@H]3CCO3)cc12 [Compound 140] and O=C(Nc1ccc2c(c1)nc(CN1CC=C(c3cccc(OCc4ccc(Cl)cc4F)n3)CC1)n2C[C@@H]1CCO1)c1ccc2[nH]nc(F)c2c1 [Compound 202] are within 1.5-fold of each other in EC50: 2.97 nM for the first, 2.21 nM for the second.

Compared with N#Cc1ccc(COc2cccc(C3CCN(Cc4nc5cc(C(=O)Nc6ccc7c(c6)C6(CC6)C(=O)N7)ccc5n4C[C@@H]4CCO4)CC3)n2)c(F)c1 [Compound 128], O=C(Nc1ccc2ncsc2c1)c1ccc2c(c1)nc(CN1CCC(c3cccc(OCc4ccc(Cl)cc4F)n3)CC1)n2C[C@@H]1CCO1 [Compound 98] is 56-fold higher in EC50: 0.3 nM for the first, 16.9 nM for the second. The first is the more potent here.

Cc1cc(NC(=O)c2ccc3c(c2)nc(CN2CC=C(c4cccc(OCc5cc(F)c(C#N)s5)n4)CC2)n3C[C@@H]2CCO2)cc2c(C(F)(F)F)n[nH]c12 [Compound 365] and N#Cc1ccc(COc2cccc(C3=CCN(Cc4nc5cc(NC(=O)c6ccc7[nH]nc(C(F)(F)F)c7c6)ccc5n4C[C@@H]4CCO4)CC3)n2)c(F)c1 [Compound 232] are within 1.5-fold of each other in EC50: 1.32 nM for the first, 1.26 nM for the second.

Compared with COCCn1c(CN2CCC(c3cccc(OCc4ccc(Cl)cc4F)n3)CC2)nc2cc(C(=O)NCc3ccc4[nH]ccc4c3)ccc21 [Compound 21], COCCn1c(CN2CCC(c3cccc(OCc4ccc(Cl)cc4F)n3)CC2)nc2cc(C(=O)N[C@@H](C)c3ccc(O)cc3)ccc21 [Compound 40] is 4.4-fold lower in EC50: 160 nM for the first, 36.5 nM for the second.

Compared with O=C(Nc1ccc2c(c1)C1(CC1)C(=O)N2)c1ccc2nc(CN3CC=C(c4cccc(OCc5ccc(Cl)cc5F)n4)CC3)n(C[C@@H]3CCO3)c2c1 [Compound 266], Cc1cc(NC(=O)c2ccc3nc(CN4CC=C(c5cccc(OCc6ccc(Cl)cc6F)n5)CC4)n(C[C@@H]4CCO4)c3c2)cc2c1NC(=O)C21CC1 [Compound 267] is 1.6-fold lower in EC50: 3.19 nM for the first, 1.99 nM for the second. The second is the more potent here.

Compared with Cc1cc(C(=O)Nc2ccc3c(c2)nc(CN2CC=C(c4cccc(OCc5ccc(Cl)cc5F)n4)CC2)n3C[C@@H]2CCO2)cc2nn[nH]c12 [Compound 242], O=C(Nc1ccc2c(c1)nc(CN1CC=C(c3cccc(OCc4ccc(Cl)cc4F)n3)CC1)n2C[C@@H]1CCO1)c1ccc2[nH]nnc2c1 [Compound 241] is 1.8-fold higher in EC50: 0.17 nM for the first, 0.31 nM for the second. The first is the more potent here.

Compared with Fc1cc(Cl)ccc1COc1cccc(C2=CCN(Cc3nc4cc(-c5nc(-c6c[nH]c(C(F)(F)F)n6)co5)ccc4n3C[C@@H]3CCO3)CC2)n1 [Compound 399], Cc1n[nH]c2cnc(C(=O)Nc3ccc4c(c3)nc(CN3CC=C(c5cccc(OCc6ccc(Cl)cc6F)n5)CC3)n4C[C@@H]3CCO3)cc12 [Compound 237] is lower in EC50: over 10000 nM for the first, 8.71 nM for the second. The second is the more potent here.

Cc1cc(NC(=O)c2ccc3c(c2)nc(CN2CCC(c4cccc(OCc5ccc(Cl)cc5F)n4)CC2)n3C[C@@H]2CCO2)cc2c(C3CC3)n[nH]c12 [Compound 114] and O=C(Nc1ccc2[nH]nc(C3CC3)c2c1)c1ccc2c(c1)nc(CN1CC=C(c3cccc(OCc4ccc(Cl)cc4F)n3)CC1)n2C[C@@H]1CCO1 [Compound 162] are within 1.5-fold of each other in EC50: 1.04 nM for the first, 1.23 nM for the second.

Cc1n[nH]c2ccc(NC(=O)c3ccc4c(c3)nc(CN3CC=C(c5cccc(OCc6c(F)cnc7ccccc67)n5)CC3)n4C[C@@H]3CCO3)cc12 [Compound 368] and Cc1nn(C)c2ccc(NC(=O)c3ccc4c(c3)nc(CN3CC=C(c5cccc(OCc6ccc(Cl)cc6F)n5)CC3)n4C[C@@H]3CCO3)cc12 [Compound 159] are within 1.5-fold of each other in EC50: 9.19 nM for the first, 9.74 nM for the second.

Compared with COCCn1c(CN2CCC(c3cccc(OCc4ccc(Cl)cc4F)n3)CC2)nc2cc(C(=O)N3Cc4[nH]nc(N)c4C3)ccc21 [Compound 26], COCCn1c(CN2CCC(c3cccc(OCc4ccc(Cl)cc4F)n3)CC2)nc2cc(C(=O)N[C@@H]3CCc4nc(N)sc4C3)ccc21 [Compound 14] is lower in EC50: over 10000 nM for the first, 447 nM for the second.

First: O=C(NCC(=O)N1C[C@@H](F)C[C@H]1C(=O)O)c1ccc2c(c1)nc(CN1CCC(c3cccc(OCc4ccc(Cl)cn4)n3)CC1)n2C[C@@H]1CCO1 [Compound 48]
Second: O=C(NCC(=O)N1C2CCC(C2)[C@H]1C(=O)O)c1ccc2c(c1)nc(CN1CCC(c3cccc(OCc4ccc(Cl)cc4F)n3)CC1)n2C[C@@H]1CCO1 (stereo partly drawn) [Compound 59]
The EC50 of the first is 1.7-fold lower: 4.36 nM for the first, 7.2 nM for the second.

First: Cc1cc2c(C#N)ccc(COc3cccc(C4=CCN(Cc5nc6cc(C(=O)Nc7ccc8[nH]nc(C(F)(F)F)c8c7)ccc6n5C[C@@H]5CCO5)CC4)n3)c2o1 [Compound 356]
Second: N#Cc1ccc(COc2cccc(C3=CCN(Cc4nc5cc(C(=O)Nc6cc(F)c7[nH]ncc7c6)ccc5n4C[C@@H]4CCO4)CC3)n2)c(F)c1 [Compound 180]
The EC50 of the first is 2.1-fold higher: 2.21 nM for the first, 1.06 nM for the second. The second is the more potent here.

Compared with Cc1n[nH]c2c(C(F)(F)F)cc(C(=O)Nc3ccc4c(c3)nc(C3CC35CCN(c3cccc(OCc6ccc(Cl)cc6F)n3)CC5)n4C[C@@H]3CCO3)cc12 (stereo partly drawn) [Compound 253], Cc1cc(C(=O)Nc2ccc3c(c2)nc(C2CC24CCN(c2cccc(OCc5ccc(Cl)cc5F)n2)CC4)n3C[C@@H]2CCO2)cc2[nH]c(=O)[nH]c12 (stereo partly drawn) [Compound 249] is 4.6-fold lower in EC50: 2.01 nM for the first, 0.44 nM for the second. The second is the more potent here.

Compared with Cc1n[nH]c2c(C)cc(NC(=O)c3ccc4c(c3)nc(CN3CC=C(c5cccc6c5OC(C)(c5ccc(C#N)cc5F)O6)CC3)n4CC3CCO3)cc12 (stereo not drawn) [Compound 299], O=C(Nc1ccc2[nH]c(=O)[nH]c2n1)c1ccc2c(c1)nc(CN1CCC(c3cccc(OCc4ccc(Cl)cc4F)n3)CC1)n2C[C@@H]1CCO1 [Compound 93] is 190-fold higher in EC50: 0.16 nM for the first, 29.8 nM for the second.

O=C(O)CNC(=O)c1ccc2c(c1)nc(CN1CCC(c3cccc(OCc4ccc(Cl)cc4F)n3)CC1)n2C[C@@H]1CCO1 [Compound 50] gave an EC50 of 34 nM.
